Read-outs that look alike come from different tables or passages of the source.

Experiment [1] has as its system U87 human glioblastoma cells. Put plainly: MTT cytotoxicity assay, U87. The format is cell-based. Particulars: 48 h incubation, 3 independent experiments, read-out: IC50 (mean ± SE). The protocol: (§1) Human brain tumor cells lines U87 MG (Cat.# HTB-14), U118 MG (Cat. # HTB-15), U138 (Cat # HTB-16), U373 MG (CAT. # HTB-17), and T98G (Cat. # CRL-1690) and breast cancer cell lines BT-20 (Cat # HTB-19), MDA-MB-231 (Cat # HTB-26), MDA-MB-361 (Cat # HTB-27), and MCF-7 (Cat # HTB-22) were obtained from American Type Culture Collection (ATCC, Rockville, Md.) and maintained as continuous cell lines in Dulbecco's modified Eagles's medium (U87, U118, U138, U373, T98 and BT-20) or Leibovitz's L-15 medium (MDA-MB-231 and MDA-MB-361). All media were supplemented with 10% fetal calf serum (FCS), 4 mM glutamine, 100 U/ml penicillin G and […] streptomycin sulfate. All tissue culture reagents were obtained from Life Technologies Inc. (GIBCO-BRL, Gaithersburg, Md.).
(§2) The cytotoxicity of [VO(SO4)(Me2-Phen)2] against human cancer cell lines was analyzed using the MTT (3-[4,5-dimethylthiazol-2-yl]-2,5-diphenyl tetrazolium bromide) assay (Boehringer Mannheim Corp., Indianapolis, Ind.) as described previously (Narla et al., Clin Cancer Res., 4: 1405-1414, 1998). […] The absorbance at 540 nm (a reference wavelength of 690 nm was used) of the solution in each well was measured using a microplate reader (Labsystems). The percent survival and the IC50 values were calculated using Graphpad Prism v2.0 (Graphpad Software, Inc., San Diego, Calif.) as described previously (Narla et al., Supra). […]
(In general: Tetrazolium dyes change colour on reduction, which living cells bring about.)

The subject of experiment [2] is U118 human glioblastoma cells. The experiment is described as follows: MTT cytotoxicity assay, U118. It is filed as cell-based. To be noted: 48 h incubation, 3 independent experiments, read-out: IC50 (mean ± SE). The method, then: as §1, §2
Experiment [3] has as its system BT-20 breast cancer cells. The experiment is described as follows: MTT cytotoxicity assay, BT-20. It is filed as cell-based, human. To be noted: BT-20 cells, 48 h incubation, 3 independent experiments, read-out: IC50 (mean ± SE). The protocol: as §1, §2
Experiment [4] concerns U87 glioblastoma cells. Put plainly: In vitro adhesion assay to ECM proteins, U87. It is filed as cell-based, human. Particulars: 16 h pretreatment, mean ± SE of 3 experiments. The method, then: In vitro adhesion assays were used to evaluate the effects of [VO(SO4)(Me2-Phen)2] on the adhesive properties of U87 and MDA-MD-231 cells as described previously (Narla et al., Clin Cancer Res, 4: 2463-2471, 1998). The plates for the adhesion assays were pre-coated with the extracellular matrix (ECM) proteins laminin, fibronectin, vitronectin and type IV collagen (each at a final concentration of 1 μg/ml in PBS) overnight at 4° C. and dried. Exponentially-growing cells (as described in the previous Example) were incubated with [VO(SO4)(Me2-Phen)2] at concentrations ranging from 0.5 μM to 25 μM for 16 hours in a humidified 5% CO2 atmosphere. The cells were then detached from the flasks with 0.05% trypsin (Life Technologies), resuspended in medium, incubated at 37° C. for 2 hours to allow them to recover from the trypsinization stress and examined for their ability to adhere to the plates precoated with ECM proteins. Cells were centrifuged, washed twice with serum-free medium, counted and resuspended in serum-free medium at a final concentration of 2.5×10^5 cells/ml. The cell suspension was added to each well in aliquots of 100 μl and the cells were allowed to adhere for one hour at 37° C. in a humidified 5% CO2atmosphere. The non-adherent cells were removed by gently washing the cells with PBS. The adherent fraction was quantitated using MTT assays as previously described (Narla, Supra).
U87 glioblastoma and MDA-MD-231 breast cancer cells were preincubated with various concentrations of [VO(SO4)(Me2-Phen)2] and processed for adhesion assays. [VO(SO4)(Me2-Phen)2] inhibited adhesion of the U87 and MDA-MB-231 cells to extracellular matrix (ECM) proteins, Pretreatment of cells with [VO(SO4)(Me2-Phen)2] inhibited the adhesion of U87 glioblastoma and MDA-MB-231 breast cancer cells to laminin-, fibronectin-, vitronectin- and collagen-coated plates. The inhibition of glioblastoma cell adhesion was concentration-dependent with mean (±SE) IC50 values from 3 independent experiments shown in the table below.

As for `Cc1ccnc2c1ccc1c(C)ccnc12.Cc1ccnc2c1ccc1c(C)ccnc12.O=S(=O)([O-])[O-].[O]=[V+2]` [[VO(SO4)(Me2-Phen)2], bis(4,7-dimethyl-1,10-phenanthroline) sulfatooxovanadium (IV)], the half-inhibitory concentration (IC50) (in general, the concentration that inhibits the measured activity by half) is 2100 ± 600 nM in experiment [1]; 820 ± 100 nM in experiment [2]; 1600 ± 700 nM in experiment [3]; 1300 nM in experiment [4] (U87, fibronectin-coated plates, read-out: IC50 inhibition of adhesion to fibronectin); 1400 ± 100 nM in experiment [4] (U87, laminin-coated plates, read-out: IC50 inhibition of adhesion to laminin); 1200 nM in experiment [4] (U87, type IV collagen-coated plates, read-out: IC50 inhibition of adhesion to collagen). Besides, the IC50 in experiment [4] (U87, vitronectin-coated plates, read-out: IC50 inhibition of adhesion to vitronectin) came out at 1200 ± 100 nM.

These data come from patent US6878388B1, “Vanadium compounds for treating proliferative cell disorders” (Parker Hughes Institute, priority 2000, dated 2005).
